#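 How tested: cells in 96-well plates exposed to compound for 48 hours at five concentrations. TGI: concentration producing complete growth inhibition.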
# Assays:
# Assay in all cases: NCI-60 cell line screen, 48 h
# 786-0 renal = system: 786-0 renal
# A498 renal = system: A498 renal
# A549 NSCLC = system: A549 NSCLC
# ACHN renal = system: ACHN renal
# BT-549 breast = system: BT-549 breast
# CAKI-1 renal = system: CAKI-1 renal
# CCRF-CEM leukemia = system: CCRF-CEM leukemia
# COLO 205 colon = system: COLO 205 colon
# DU-145 prostate = system: DU-145 prostate
# EKVX NSCLC = system: EKVX NSCLC
# HCT-116 colon = system: HCT-116 colon
# HCT-15 colon = system: HCT-15 colon
# HL-60(TB) leukemia = system: HL-60(TB) leukemia
# HOP-62 NSCLC = system: HOP-62 NSCLC
# HOP-92 NSCLC = system: HOP-92 NSCLC
# HS 578T breast = system: HS 578T breast
# HT29 colon = system: HT29 colon
# IGROV1 ovarian = system: IGROV1 ovarian
# K-562 leukemia = system: K-562 leukemia
# KM12 colon = system: KM12 colon
# LOX IMVI melanoma = system: LOX IMVI melanoma
# M14 melanoma = system: M14 melanoma
# MALME-3M melanoma = system: MALME-3M melanoma
# MCF7 breast = system: MCF7 breast
# MDA-MB-231 breast = system: MDA-MB-231 breast
# MDA-MB-435 = system: MDA-MB-435
# MDA-N = system: MDA-N
# MOLT-4 leukemia = system: MOLT-4 leukemia
# NCI-H23 lung = system: NCI-H23 lung
# NCI-H522 lung = system: NCI-H522 lung
# NCI/ADR-RES ovarian = system: NCI/ADR-RES ovarian
# OVCAR-3 ovarian = system: OVCAR-3 ovarian
# OVCAR-4 ovarian = system: OVCAR-4 ovarian
# OVCAR-5 ovarian = system: OVCAR-5 ovarian
# OVCAR-8 ovarian = system: OVCAR-8 ovarian
# PC-3 prostate = system: PC-3 prostate
# RPMI-8226 leukemia = system: RPMI-8226 leukemia
# RXF 393 renal = system: RXF 393 renal
# SF-268 CNS = system: SF-268 CNS
# SF-295 CNS = system: SF-295 CNS
# SF-539 CNS = system: SF-539 CNS
# SK-MEL-2 melanoma = system: SK-MEL-2 melanoma
# SK-MEL-28 melanoma = system: SK-MEL-28 melanoma
# SK-MEL-5 melanoma = system: SK-MEL-5 melanoma
# SN12C renal = system: SN12C renal
# SNB-19 CNS = system: SNB-19 CNS
# SW-620 colon = system: SW-620 colon
# T-47D breast = system: T-47D breast
# TK-10 renal = system: TK-10 renal
# U251 CNS = system: U251 CNS
# UACC-257 melanoma = system: UACC-257 melanoma
# UACC-62 melanoma = system: UACC-62 melanoma
# UO-31 renal = system: UO-31 renal
# HCC-2998 colon = system: HCC-2998 colon
# NCI-H226 lung = system: NCI-H226 lung
# NCI-H460 lung = system: NCI-H460 lung
# SK-OV-3 ovarian = system: SK-OV-3 ovarian
# SNB-75 CNS = system: SNB-75 CNS
# SR leukemia = system: SR leukemia
compound,measurement,setting,value
C#CC(O)(c1nc2ccccc2s1)c1nc2ccccc2s1,TGI,786-0 renal,38.9 µM
same,TGI,A498 renal,35.2 µM
same,TGI,A549 NSCLC,> 100 µM
same,TGI,ACHN renal,83.2 µM
same,TGI,BT-549 breast,57.3 µM
same,TGI,CAKI-1 renal,> 100 µM
same,TGI,CCRF-CEM leukemia,79 µM
same,TGI,COLO 205 colon,40 µM
same,TGI,DU-145 prostate,> 100 µM
same,TGI,EKVX NSCLC,57.5 µM
same,TGI,HCT-116 colon,30.2 µM
same,TGI,HCT-15 colon,60.6 µM
same,TGI,HL-60(TB) leukemia,46.1 µM
same,TGI,HOP-62 NSCLC,85.1 µM
same,TGI,HOP-92 NSCLC,38.2 µM
same,TGI,HS 578T breast,> 100 µM
same,TGI,HT29 colon,77.6 µM
same,TGI,IGROV1 ovarian,31.6 µM
same,TGI,K-562 leukemia,> 100 µM
same,TGI,KM12 colon,> 100 µM
same,TGI,LOX IMVI melanoma,35.7 µM
same,TGI,M14 melanoma,32.8 µM
same,TGI,MALME-3M melanoma,> 100 µM
same,TGI,MCF7 breast,52.9 µM
same,TGI,MDA-MB-231 breast,39.7 µM
same,TGI,MDA-MB-435,87.6 µM
same,TGI,MDA-N,57.4 µM
same,TGI,MOLT-4 leukemia,> 100 µM
same,TGI,NCI-H23 lung,56.1 µM
same,TGI,NCI-H522 lung,39.7 µM
same,TGI,NCI/ADR-RES ovarian,75.6 µM
same,TGI,OVCAR-3 ovarian,40.8 µM
same,TGI,OVCAR-4 ovarian,> 100 µM
same,TGI,OVCAR-5 ovarian,51.6 µM
same,TGI,OVCAR-8 ovarian,51.5 µM
same,TGI,PC-3 prostate,64.7 µM
same,TGI,RPMI-8226 leukemia,76.8 µM
same,TGI,RXF 393 renal,89.7 µM
same,TGI,SF-268 CNS,> 100 µM
same,TGI,SF-295 CNS,76.8 µM
same,TGI,SF-539 CNS,36.7 µM
same,TGI,SK-MEL-2 melanoma,35.7 µM
same,TGI,SK-MEL-28 melanoma,> 100 µM
same,TGI,SK-MEL-5 melanoma,30.7 µM
same,TGI,SN12C renal,42.6 µM
same,TGI,SNB-19 CNS,> 100 µM
same,TGI,SW-620 colon,> 100 µM
same,TGI,T-47D breast,88.9 µM
same,TGI,TK-10 renal,> 100 µM
same,TGI,U251 CNS,44 µM
same,TGI,UACC-257 melanoma,88.5 µM
same,TGI,UACC-62 melanoma,26.1 µM
same,TGI,UO-31 renal,29.4 µM
C=CO/N=[N+](\[O-])N(CC)CC,TGI,786-0 renal,> 100 µM
same,TGI,A498 renal,> 100 µM
same,TGI,A549 NSCLC,> 100 µM
same,TGI,ACHN renal,> 100 µM
same,TGI,CAKI-1 renal,> 100 µM
same,TGI,CCRF-CEM leukemia,> 100 µM
same,TGI,COLO 205 colon,> 100 µM
same,TGI,DU-145 prostate,> 100 µM
same,TGI,EKVX NSCLC,> 100 µM
same,TGI,HCC-2998 colon,> 100 µM
same,TGI,HCT-116 colon,> 100 µM
same,TGI,HCT-15 colon,> 100 µM
same,TGI,HL-60(TB) leukemia,> 100 µM
same,TGI,HOP-62 NSCLC,> 100 µM
same,TGI,HOP-92 NSCLC,> 100 µM
same,TGI,HS 578T breast,> 100 µM
same,TGI,HT29 colon,> 100 µM
same,TGI,IGROV1 ovarian,> 100 µM
same,TGI,K-562 leukemia,> 100 µM
same,TGI,KM12 colon,> 100 µM
same,TGI,LOX IMVI melanoma,> 100 µM
same,TGI,M14 melanoma,> 100 µM
same,TGI,MALME-3M melanoma,> 100 µM
same,TGI,MCF7 breast,> 100 µM
same,TGI,MDA-MB-231 breast,> 100 µM
same,TGI,MDA-MB-435,> 100 µM
same,TGI,MDA-N,> 100 µM
same,TGI,MOLT-4 leukemia,> 100 µM
same,TGI,NCI-H226 lung,> 100 µM
same,TGI,NCI-H23 lung,> 100 µM
same,TGI,NCI-H460 lung,> 100 µM
same,TGI,NCI-H522 lung,> 100 µM
same,TGI,NCI/ADR-RES ovarian,> 100 µM
same,TGI,OVCAR-3 ovarian,> 100 µM
same,TGI,OVCAR-4 ovarian,> 100 µM
same,TGI,OVCAR-5 ovarian,> 100 µM
same,TGI,OVCAR-8 ovarian,> 100 µM
same,TGI,RPMI-8226 leukemia,> 100 µM
same,TGI,RXF 393 renal,> 100 µM
same,TGI,SF-268 CNS,> 100 µM
same,TGI,SF-295 CNS,> 100 µM
same,TGI,SF-539 CNS,> 100 µM
same,TGI,SK-MEL-28 melanoma,> 100 µM
same,TGI,SK-MEL-5 melanoma,> 100 µM
same,TGI,SK-OV-3 ovarian,> 100 µM
same,TGI,SN12C renal,> 100 µM
same,TGI,SNB-19 CNS,> 100 µM
same,TGI,SNB-75 CNS,> 100 µM
same,TGI,SR leukemia,> 100 µM
same,TGI,SW-620 colon,> 100 µM
same,TGI,T-47D breast,> 100 µM
same,TGI,TK-10 renal,> 100 µM
same,TGI,U251 CNS,> 100 µM
same,TGI,UACC-257 melanoma,> 100 µM
same,TGI,UACC-62 melanoma,> 100 µM

# Reference: PubChem BioAssay (NCI)
